# From patent publication US12564576B2, “Therapeutic agent for vascular disorder” (NATIONAL UNIVERSITY CORPORATION KUMAMOTO UNIVERSITY, priority 2020, dated 2026)
# System: synthesis and secretion of a type IV collagen protein in vascular endothelial cells derived from iPS cells
# Assay: Amount of type IV collagen protein released into the medium by iPS-derived vascular endothelial cells (Western blotting)
# Assay type: cell-based, human
# Settings: 10 nmol/L digoxin, serum-free medium, 3 days culture; FIG. 3
# Procedure: As the cells, iPS cells derived from healthy adults and patients with scleroderma established at Kumamoto University were used (Zhongzhi Wang, et al., JDS 2016 November; 84(2): 186-196.). Scleroderma is known to cause Raynaud's syndrome, which is one of peripheral vascular disorders, as a symptom of scleroderma, and therefore was employed as a vascular disorder model cell.
# Differentiation induction into vascular endothelial cells was performed by culturing iPS cells derived from healthy adults and patients with scleroderma under the conditions described in Table 1.
# As the obtained cells, only cells positive for VE-cadherin (CD144) and PECAM-1 (CD31), which are vascular endothelial cell markers, were sorted using flow cytometry. From the morphology of the sorted cells and the expression of the marker genes, it was confirmed that the sorted cells were vascular endothelial cells. […]
# In the above (1), using the cell supernatant cultured in the serum-free medium, the amount of a type IV collagen protein released into the medium was quantified by the following method.
# First, proteins released into the medium were concentrated. […] After removal of ethanol, the precipitate was dried and dissolved in an RIPA buffer, and each sample was adjusted to have a protein concentration of 1 mg/ml using a protein quantification reagent (Bradford Protein Assay, manufactured by Bio-Rad Laboratories, Inc.). […]
compound,measurement,value
C[C@H]1O[C@@H](O[C@H]2[C@@H](O)C[C@H](O[C@H]3[C@@H](O)C[C@H](O[C@H]4CC[C@@]5(C)[C@H](CC[C@@H]6[C@@H]5C[C@@H](O)[C@]5(C)[C@@H](C7=CC(=O)OC7)CC[C@]65O)C4)O[C@@H]3C)O[C@@H]2C)C[C@H](O)[C@@H]1O [digoxin],amount of a type IV collagen protein in the medium,hardly reduced
